Experimental data as given in patent US20240207302A1, “ANTIVIRAL COMPOUNDS, METHODS FOR THE MANUFACTURING OF COMPOUNDS, ANTIVIRAL PHARMACEUTICAL COMPOSITION, USE OF THE COMPOUNDS AND METHOD FOR THE ORAL TREATMENT OF CORONAVIRUS INFECTION AND RELATED DISEASES THEREOF” (priority 2021, published 2024).
Where two headings read alike, the source gives them in different places.

Legend:
[1] = tested on: SARS-COV-2; assay: Combination with SARS-COV-2 nsp14 (exonuclease) inhibitors in Calu-3 cells, infectious virus titers; assay type: cell-based; conditions: for EC50 / EC90 / EC99 mean: Calu-3, alone or in combination as labelled; for effect of co-treatment with raltegravir or dolutegravir (iEXO) on inhibition of SARS-COV-2 / effect on SARS-COV-2 replication: calu-3; for effect of co-treatment with raltegravir or dolutegravir (iEXO) on inhibition of SARS-COV-2: drug 10 μM, raltegravir or dolutegravir 5 μM; for effect on SARS-COV-2 replication: 5 μM
[2] = tested on: TNF-α and IL-6; assay: TNF-α and IL-6 levels in supernatant of SARS-COV-2-infected human primary monocytes; assay type: cell-based; conditions: 24 h
Method: (§1) FIG. 5A, 5B and 5C. The compounds impair SARS-COV-2 RNA synthesis and SARS-COV-2-induced release of inflammatory mediators in human primary monocytes.
(§2) Human primary monocytes were obtained after 3 h of plastic adherence of peripheral blood mononuclear cells (PBMCs). PBMCs were isolated from healthy donors by density gradient centrifugation (Ficoll-Paque, GE Healthcare). PBMCs (2.0×10^6 cells) were plated onto 48-well plates (NalgeNunc) in RPMI-1640 without serum for 2 to 4 h. Non-adherent cells were removed, and the remaining monocytes were maintained in DMEM with 5% human serum (HS; Millipore) and penicillin/streptomycin. Monocytes were infected at MOI of 0.1. After 1 h inoculation period, cells were washed with phosphate saline buffer (PBS) to remove unbounded viruses and treated with 1 μM of the indicated compounds. After 24 h after infection, cell monolayers werc lysed total viral RNA was extracted, quantitative RT-PCR was performed, to detect the SARS-COV-2 and the housekeeping gene RNAse P.

[3] = tested on: SARS-COV-2; assay: SARS-COV-2 viral RNA synthesis in Vero cells (real time RT-PCR); assay type: cell-based; conditions: for SI: Vero, CC50/EC50
[4] = tested on: SARS-COV-2; assay: SARS-COV-2 viral RNA synthesis in Calu-3 cells (real time RT-PCR); assay type: cell-based; conditions: 1.0 μM
[5] = Cytotoxicity assay (XTT) in Huh-7 cells; assay type: cell-based; conditions: human
Method: In parallel, cytotoxicity assays were performed. Monolayers of 1.5×10^4 cells in 96-well plates were treated for 3 days with various concentrations (semi-log dilutions from 1,000 to 10 μM) of the antiviral drugs. Then, 5 mg/mL 2,3-bis-(2-methoxy-4-nitro-5-sulfophenyl)-2H-tetrazolium-5-carboxanilide (XTT) in DMEM was added to the cells in the presence of 0.01% of N-methyl dibenzopyrazine methyl sulfate (PMS).

[6] = tested on: SARS-COV-2; assay: SARS-COV-2 viral RNA synthesis in HuH-7 cells (real time RT-PCR); assay type: cell-based; conditions: for SI: Huh-7, CC50/EC50
[7] = tested on: SARS-COV-2; assay: SARS-COV-2 RNA loads in human primary monocytes; assay type: cell-based; conditions: 24 h
Method: as §1, §2

[8] = tested on: SARS-COV-2; conditions: for SI: CC50/EC50
[9] = tested on: Calu-3 cells; assay: Cytotoxicity assay (XTT) in Calu-3 cells; assay type: cell-based, human
Method: (§3) In parallel, cytotoxicity assays were performed.

[10] = Cytotoxicity assay (XTT) in Calu-3 cells; assay type: cell-based, human; conditions: human
Method: as §3

[11] = tested on: Salmonella typhimirium TA 97a, TA 98, TA 100, TA 102 and TA 1535; assay: Bacterial reverse mutation (Ames) test
[12] = tested on: mouse bone marrow polychromatic erythrocytes; assay: Micronucleus test in mouse bone marrow; assay type: in vivo; conditions: mice; 25 mg/Kg i.p.
Method: The ratio of polychromatic to normochromatic erythrocytes and the count of micronuclei were determined. This assay was conducted in compliance with the GLP principles.

[13] = Cytotoxicity assay (XTT) in Vero cells; assay type: cell-based; conditions: African green monkey
Method: as §3

[14] = Severe acute respiratory syndrome coronavirus 2
[15] = Severe acute respiratory syndrome coronavirus 2, Vero (MOI 0.01 24 h), read-out: EC50
[16] = Severe acute respiratory syndrome coronavirus 2, Huh-7 (MOI 0.1 48 h), read-out: EC50
[17] = Calu-3, single moment treatment
[18] = Severe acute respiratory syndrome coronavirus 2, Calu-3, 72 h, Calu-3 (MOI 0.5 72 h), daily treatment
[19] = Severe acute respiratory syndrome coronavirus 2, Calu-3, 72 h, Calu-3 (MOI 0.5 72 h), single moment treatment
[20] = Severe acute respiratory syndrome coronavirus 2, Calu-3, Table 6, Calu-3, daily treatment
[21] = Severe acute respiratory syndrome coronavirus 2, Calu-3, Table 6, Calu-3, single treatment
[22] = Table 6, Calu-3, daily treatment
[23] = Table 6, Calu-3, single treatment

## COC(=O)N[C@H](C(=O)N1CCC[C@H]1c1nc(-c2ccc(-c3ccc(-c4c[nH]c([C@@H]5CCCN5C(=O)[C@@H](NC(=O)OC)C(C)C)n4)cc3)cc2)c[nH]1)C(C)C [Daclatasvir]
[1]; [14]
  EC50: 0.7 µM
  EC90: 3.8 µM

## CC(C)OC(=O)[C@H](C)N[P@](=O)(OC[C@H]1O[C@@H](n2ccc(=O)[nH]c2=O)[C@](C)(F)[C@@H]1O)Oc1ccccc1 [sofosbuvir]
[1]
  effect of co-treatment with raltegravir or dolutegravir (iEXO) on inhibition of SARS-COV-2: enhanced efficiency

## OC[C@H]1O[C@@H](n2cnc3c(NCc4ccco4)ncnc32)[C@H](O)[C@@H]1O [MB-801, kinetin riboside]
[2]
  SARS-CoV-2-induced enhancement of IL-6 levels in culture supernatant: reduced
  SARS-CoV-2-induced enhancement of TNF-α levels in culture supernatant: reduced
[3]; [15]
  EC50: 8 µM
[4]
  inhibition of SARS-COV-2 RNA synthesis: best profiles
[5]
  CC50 at 3 days: 229 µM
[1]
  effect of co-treatment with raltegravir or dolutegravir (iEXO) on inhibition of SARS-COV-2: synergistic
[6]
  SI: 2290
[6]; [16]
  EC50: 0.1 µM
[7]
  viral RNA levels/cell: reduced
[8]; Calu-3, daily treatment
  SI: 26500 µM
[8]; [17]
  SI: 3055
[8]; [18]
  EC50: 0.02 µM
  EC90: 3.7 µM
[8]; [19]
  EC50: 0.18 µM
  EC90: 7.2 µM
[8]; [20]
  EC50: 0.02 µM
  EC90: 3.7 µM
[8]; [21]
  EC50: 0.18 µM
  EC90: 7.2 µM
[8]; [22]
  SI: 26,500
[8]; [23]
  SI: 3.055
[9]; Calu-3, daily treatment
  CC50: 530 µM
[9]; [17]
  CC50: 550 µM
[10]; [22]
  CC50 at 3 days: 530 µM
[10]; [23]
  CC50 at 3 days: 550 µM

## [N-]=[N+]=[N-] [sodium azide, reference compound]
[11]; TA 100 −S9, positive control 1.5 μg/plate
  Mutagenicity: +
[11]; TA 1535 −S9, positive control 1.5 μg/plate
  Mutagenicity: +

## NC(=O)c1nc(F)c[nH]c1=O [Favipiravir]
[1]; [14]
  EC50: 7.8 µM

## C[C@H](Cn1cnc2c(N)ncnc21)OCP(=O)(O)O [Tenofovir]
[1]
  EC50: 4.3 µM
  effect of co-treatment with raltegravir or dolutegravir (iEXO) on inhibition of SARS-COV-2: enhanced efficiency

## Nc1ccc2cc3ccccc3cc2c1 [2-aminoanthracene, reference compound]
[11]; TA 102 +S9, positive control 5 μg/plate
  Mutagenicity: +
[11]; TA 1535 +S9, positive control 2.5 μg/plate
  Mutagenicity: +

## COC(=O)N[C@H](C(=O)N1CCC[C@H]1C(=O)Nc1ccc([C@@H]2CC[C@@H](c3ccc(NC(=O)[C@@H]4CCCN4C(=O)[C@@H](NC(=O)OC)C(C)C)cc3)N2c2ccc(C(C)(C)C)cc2)cc1)C(C)C [Ombitasvir]
[1]
  EC99 mean: 18 µM
[1]; [14]
  EC50: 0.4 µM
  EC90: 3.3 µM

## C/C(=C\CNc1ncnc2[nH]cnc12)CO [MB-907, zeatin]
[3]; Severe acute respiratory syndrome coronavirus 2, Vero, 24 h
  EC50: 6 µM
[5]
  CC50 at 3 days: 600 µM
[6]; Severe acute respiratory syndrome coronavirus 2, Huh-7, 48 h
  EC50: 0.05 µM

## CC(C)C(=O)OC[C@H]1O[C@@H](n2ccc(NO)nc2=O)[C@H](O)[C@@H]1O [MK-4482, N-4-hydroxycytidine-5′-isopropyl ester, reference compound]
[1]
  EC99 mean: 9 µM
[1]; [14]
  EC50: 0.8 µM
  EC90: 7 µM
[8]; Calu-3
  efficiency impaired due to daily treatment: 2 times
[8]; Calu-3, daily treatment
  SI: 2900 µM
[8]; [18]
  EC50: 0.02 µM
  EC90: 8.6 µM
[8]; [20]
  EC50: 0.02 µM
  EC90: 8.6 µM
[8]; [21]
  EC50: 0.72 µM
  EC90: 3.4 µM
[8]; [22]
  SI: 2,900
[8]; [23]
  SI: 80
[9]; Calu-3, daily treatment
  CC50: 58 µM
[10]; [22]
  CC50 at 3 days: 58 µM
[10]; [23]
  CC50 at 3 days: 58 µM

## COC(=O)N[C@H](C(=O)N1CCC[C@H]1c1nc2cc([C@H]3CC[C@H](c4cc5nc([C@@H]6CCCN6C(=O)[C@@H](NC(=O)OC)[C@@H](C)OC)[nH]c5cc4F)N3c3cc(F)c(N4CCC(c5ccc(F)cc5)CC4)c(F)c3)c(F)cc2[nH]1)[C@@H](C)OC [Pibrentasvir]
[1]
  EC99 mean: 19 µM
[1]; [14]
  EC50: 0.7 µM
  EC90: 4.2 µM

## c1coc(CNc2ncnc3c2ncn3C2CCCCO2)c1 (centres unmarked) [MB-906]
[6]
  anti-coronavirus activity (SARS-COV-2 replication): not endowed with anti-coronavirus activity
[8]
  anti-coronavirus activity (SARS-COV-2 replication): not endowed with anti-coronavirus activity

## O=P1(N(CCCl)CCCl)NCCCO1 (centres unmarked) [Cyclophosphamide, reference compound]
[12]
  MNPCE/4,000 PCE (Mean ± S.D.): 16.20 ± 6.03

## CC(C)OC(=O)[C@H](C)NP(=O)(OC[C@H]1O[C@@H](n2cnc3c(NCc4ccco4)ncnc32)[C@H](O)[C@@H]1O)Oc1ccccc1 (some centres unmarked) [MB-711, kinetin riboside monophosphoramidate]
[4]
  inhibition of SARS-COV-2 RNA synthesis: best profiles
[1]
  effect of co-treatment with raltegravir or dolutegravir (iEXO) on inhibition of SARS-COV-2: synergistic
[8]; Calu-3, daily treatment
  SI: 58000 µM
[8]; [17]
  SI: 510
[8]; [18]
  EC50: 0.01 µM
  EC90: 3.8 µM
[8]; [19]
  EC50: 1.1 µM
  EC90: 9.2 µM
[8]; [20]
  EC50: 0.01 µM
  EC90: 3.8 µM
[8]; [21]
  EC50: 1.1 µM
  EC90: 9.2 µM
[8]; [22]
  SI: 58,000
[8]; [23]
  SI: 510
[10]; Calu-3, daily treatment
  CC50 at 3 days: 580 µM
[10]; [17]
  CC50 at 3 days: 562 µM
[10]; [22]
  CC50 at 3 days: 580 µM
[10]; [23]
  CC50 at 3 days: 562 µM

## CCC(CC)COC(=O)[C@H](C)N[P@](=O)(OC[C@H]1O[C@@](C#N)(c2ccc3c(N)ncnn23)[C@H](O)[C@@H]1O)Oc1ccccc1 [Remdesivir, reference compound]
[3]; [15]
  EC50: 0.7 µM
[3]
  SI: 757
[5]
  CC50 at 3 days: 280 µM
[1]
  EC99 mean: 1.1 µM
[1]; [14]
  EC50: 0.09 µM
  EC90: 0.4 µM
[6]
  SI: 46666
[6]; [16]
  EC50: 0.006 µM
[8]; [17]
  SI: 2300
[8]; [18]
  EC50: 0.01 µM
  EC90: 0.2 µM
[8]; [19]
  EC50: 0.15 µM
  EC90: 0.4 µM
[8]; [20]
  EC50: 0.01 µM
  EC90: 0.2 µM
[8]; [21]
  EC50: 0.15 µM
  EC90: 0.4 µM
[8]; [22]
  SI: 3,3000
[8]; [23]
  SI: 2.300
[13]
  CC50 at 3 days: 530 µM
[10]; [22]
  CC50 at 3 days: 330 µM
[10]; [23]
  CC50 at 3 days: 350 µM

## Cc1nnc(C(=O)NC(C)(C)c2nc(C(=O)NCc3ccc(F)cc3)c(O)c(=O)n2C)o1 [RTG, raltegravir]
[1]; [14]
  EC50: 4.8 µM
[1]
  effect on SARS-COV-2 replication: marginal effects

## C/C(=C\CNc1ncnc2c1ncn2[C@@H]1O[C@H](CO)[C@@H](O)[C@H]1O)CO [MB-804, zeatin riboside]
[3]; [15]
  EC50: 1.4 µM
[3]
  SI: 454
[5]
  CC50 at 3 days: 550 µM
[1]
  effect of co-treatment with raltegravir or dolutegravir (iEXO) on inhibition of SARS-COV-2: synergistic
[6]
  SI: 78
[6]; [16]
  EC50: 7.2 µM
[7]
  viral RNA levels/cell: reduced
[8]; [17]
  SI: 500
[8]; [19]
  EC50: 1.2 µM
  EC90: 9.1 µM
[13]
  CC50 at 3 days: 636 µM
[10]; [17]
  CC50 at 3 days: 580 µM

## C[C@@H]1CCO[C@H]2Cn3cc(C(=O)NCc4ccc(F)cc4F)c(=O)c(O)c3C(=O)N12 [DTG, dolutegravir]
[1]; [14]
  EC50: 5.3 µM
[1]
  effect on SARS-COV-2 replication: marginal effects
